The test system of data set [1] is Calf thymus DNA. The data set is described as follows: Displacement of EtBr from calf thymus DNA incubated for 3 mins by fluorescence based assay. The format is tissue-based. To be noted: Bos taurus.
Data set [2] has as its target T1, Albumin (Homo sapiens, UniProt P02768). The data set is described as follows: Binding affinity to human serum albumin assessed as quenching constant by Stern-Volmer plot analysis. The format is ADME, cell-free.
The target of data set [3] is T1, Albumin. The experiment in a line: Binding affinity to human serum albumin […]. The format is ADME, cell-free.
Data set [4] deals with Calf thymus DNA. The experiment in a line: Binding affinity to calf thymus DNA assessed as change in melting temperature at DNA to ligand ratio at 40:1 by spectrophotometric method. The format is tissue-based. To be noted: Bos taurus.
The subject of data set [5] is Calf thymus DNA. The data set is described as follows: Displacement of EtBr from calf thymus DNA at 50 uM incubated for 3 mins by fluorescence based assay relative to control. The format is tissue-based. The conditions noted are these: Bos taurus.
Data set [6] concerns Calf thymus DNA. The data set is described as follows: Displacement of EtBr from calf thymus DNA assessed per base pair incubated for 3 mins by fluorescence based assay. The format is tissue-based. To be noted: Bos taurus.

Each structure is given as a SMILES string.

T1 sequence (P02768 whole entry): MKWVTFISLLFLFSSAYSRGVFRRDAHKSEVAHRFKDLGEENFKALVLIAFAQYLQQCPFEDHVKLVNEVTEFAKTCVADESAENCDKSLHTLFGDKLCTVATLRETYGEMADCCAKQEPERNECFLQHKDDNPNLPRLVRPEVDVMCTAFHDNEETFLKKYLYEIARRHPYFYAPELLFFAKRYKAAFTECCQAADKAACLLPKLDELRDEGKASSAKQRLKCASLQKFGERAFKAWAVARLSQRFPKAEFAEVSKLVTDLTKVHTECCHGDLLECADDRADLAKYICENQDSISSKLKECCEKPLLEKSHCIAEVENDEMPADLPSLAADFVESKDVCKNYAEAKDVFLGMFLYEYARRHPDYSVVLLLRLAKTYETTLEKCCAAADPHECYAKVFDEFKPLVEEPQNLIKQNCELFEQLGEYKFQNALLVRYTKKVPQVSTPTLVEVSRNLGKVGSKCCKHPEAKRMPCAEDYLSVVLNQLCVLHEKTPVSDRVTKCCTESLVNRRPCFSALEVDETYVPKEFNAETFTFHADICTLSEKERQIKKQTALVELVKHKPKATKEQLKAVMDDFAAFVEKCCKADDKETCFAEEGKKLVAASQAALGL

The molecule `C/C=C(\C)C(=O)O[C@H](C)C[C@@H]1CCCN1C(=O)CCCCCCCCC` showed a C50 in data set [1] of 380 µM. In addition, the KSV in data set [2] is 3 10^4/M. In data set [3], the Kb is recorded as 5.9 10^4/M.

A word on the ΔTm: it is the shift of the melting midpoint relative to a reference. `OC[C@H]1O[C@H](O)[C@H](O)[C@@H](O)[C@@H]1O` registered a C50 in data set [1] of 390 µM. In addition, the ΔTm in data set [4] was 10.3 °C.

In the case of `C/C=C(\C)C(=O)O[C@@H](C)C[C@H]1CCCN1C(=O)CCCCCCCCC`, in data set [1], the C50 turned out to be 340 µM. In data set [2], the KSV is recorded as 1.3 10^5/M. The Kb in data set [3] was 16 10^4/M.

The molecule `C/C=C(\C)C(=O)O[C@H](C)C[C@H]1CCCN1C(=O)CCCCCCCCC` yielded a C50 in data set [1] of 480 µM. In addition, in data set [5], the Activity came out at 93%. Moreover, the Kapp in data set [6] was 1.8 10^5/M. Further, the KSV in data set [2] was 7.2 10^5/M. Further, the Kb in data set [3] was 6.4 10^4/M.

`Cn1cc(NC(=O)c2cc(NC(=O)CNC(=N)N)cn2C)cc1C(=O)NCCC(=N)N` came in with a C50 in data set [1] of 10 µM. The Kapp in data set [6] was 5.1 10^6/M. In addition, in data set [4], the ΔTm stood at 0.7 °C.

In data set [1], `C/C=C(\C)C(=O)O[C@@H](C)C[C@@H]1CCCN1C(=O)CCCCCCCCC` registered a C50 of 470 µM. Further, the KSV in data set [2] was 3 10^4/M. Besides, in data set [3], the Kb is 7.2 10^4/M.

These data come from ChEMBL document CHEMBL4699560, “Synthesis and Stereochemical Assignment of Conioidine A: DNA- and HSA-Binding Studies of the Four Diastereomers” (J Nat Prod, 2020).
